“And” between values parts separate entries of the source, which are not always exact repeats. Equal values may be shown once. Records with an inconclusive call do not appear.
System: BDF1 mice, colon carcinoma 38 sc, T/C %
Assay: NCI In Vivo Anticancer Drug Screen. Data for tumor model Colon Carcinoma 38 (subcutaneous) in B6D2F1 (BDF1) mice
Conditions: endpoint: median tumor weight (est.), higher = larger tumour
Procedure, shortened: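 Mice with transplanted tumors are treated with compound or vehicle. Survival or tumor size is then measured in both groups. The ratio of treated to control gives the reported figure.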

[1] = dose: 5.0 mg/kg/injection, schedule: Q07DX002 (ip), vehicle: water
[2] = dose: 1600.0 mg/kg/injection, schedule: Q07DX002 (ip), vehicle: saline
[3] = dose: 6.25 mg/kg/injection, schedule: Q07DX002 (ip), vehicle: Klucel (hydroxypropylcellulose) (HPC)
[4] = dose: 12.5 mg/kg/injection, schedule: Q07DX002 (ip), vehicle: Klucel (hydroxypropylcellulose) (HPC)
[5] = dose: 50.0 mg/kg/injection, schedule: Q07DX002 (ip), vehicle: Klucel (hydroxypropylcellulose) (HPC)
[6] = dose: 100.0 mg/kg/injection, schedule: Q07DX002 (ip), vehicle: Klucel (hydroxypropylcellulose) (HPC)
[7] = dose: 25.0 mg/kg/injection, schedule: Q07DX002 (ip), vehicle: Klucel (hydroxypropylcellulose) (HPC)
[8] = dose: 200.0 mg/kg/injection, schedule: Q07DX002 (ip), vehicle: Klucel (hydroxypropylcellulose) (HPC)
[9] = dose: 400.0 mg/kg/injection, schedule: Q07DX002 (ip), vehicle: Klucel (hydroxypropylcellulose) (HPC)

Cc1c2cc[n+](C)cc2c(C)c2c1[nH]c1ccc(O)cc12
T/C (dose: 0.12 mg/kg/injection, schedule: Q07DX002 (ip), vehicle: water): 119 % of control
T/C (dose: 0.25 mg/kg/injection, schedule: Q07DX002 (ip), vehicle: water): 62 % of control
T/C (dose: 0.5 mg/kg/injection, schedule: Q07DX002 (ip), vehicle: water): 69 % of control
T/C (dose: 0.63 mg/kg/injection, schedule: Q07DX002 (ip), vehicle: water): 67 % of control
T/C (dose: 1.0 mg/kg/injection, schedule: Q07DX002 (ip), vehicle: water): 123 % of control
T/C (dose: 1.25 mg/kg/injection, schedule: Q07DX002 (ip), vehicle: water): 52 % of control
T/C (dose: 1.5 mg/kg/injection, schedule: Q07DX002 (ip), vehicle: water): 116 % of control
T/C (dose: 2.5 mg/kg/injection, schedule: Q07DX002 (ip), vehicle: water): 72 % of control
T/C (dose: 3.0 mg/kg/injection, schedule: Q07DX002 (ip), vehicle: water): 122 % of control
T/C (dose: 4.0 mg/kg/injection, schedule: Q07DX002 (ip), vehicle: water): 70 % of control
T/C [1]: 71 % of control

COC1=C(Br)[C@H](O)[C@](O)(CC#N)C=C1Br
T/C (dose: 8.75 mg/kg/injection, schedule: Q07DX002 (ip), vehicle: Klucel (hydroxypropylcellulose) (HPC)): 52 % of control
T/C (dose: 17.5 mg/kg/injection, schedule: Q07DX002 (ip), vehicle: Klucel (hydroxypropylcellulose) (HPC)): 80 % of control
T/C (dose: 35.0 mg/kg/injection, schedule: Q07DX002 (ip), vehicle: Klucel (hydroxypropylcellulose) (HPC)): 49 % of control
T/C (dose: 70.0 mg/kg/injection, schedule: Q07DX002 (ip), vehicle: Klucel (hydroxypropylcellulose) (HPC)): 105 % of control
T/C (dose: 140.0 mg/kg/injection, schedule: Q07DX002 (ip), vehicle: Klucel (hydroxypropylcellulose) (HPC)): 70 % of control
T/C (dose: 280.0 mg/kg/injection, schedule: Q07DX002 (ip), vehicle: Klucel (hydroxypropylcellulose) (HPC)): 56 % of control

CNC=O
T/C (dose: 200.0 mg/kg/injection, schedule: Q07DX002 (ip), vehicle: saline): 110 % of control
T/C (dose: 400.0 mg/kg/injection, schedule: Q07DX002 (ip), vehicle: saline): 150 % of control
T/C (dose: 800.0 mg/kg/injection, schedule: Q07DX002 (ip), vehicle: saline): 55 % of control
T/C [2]: 75 % of control

Cc1c2ccc3ccccc3c2c[n+]2ccccc12
T/C (dose: 5.0 mg/kg/injection, schedule: Q07DX002 (ip), vehicle: Klucel (hydroxypropylcellulose) (HPC)): 111 % of control and 87 % of control
T/C (dose: 10.0 mg/kg/injection, schedule: Q07DX002 (ip), vehicle: Klucel (hydroxypropylcellulose) (HPC)): 77 % of control
T/C (dose: 40.0 mg/kg/injection, schedule: Q07DX002 (ip), vehicle: Klucel (hydroxypropylcellulose) (HPC)): 89 % of control

CCOC(=O)C(CC(C)C)NC(=O)C(N)Cc1ccc(N(CCCl)CCCl)cc1 (stereo not drawn)
T/C (dose: 5.0 mg/kg/injection, schedule: Q07DX002 (ip), vehicle: saline): 43 % of control
T/C [1]: 86 % of control
T/C (dose: 10.0 mg/kg/injection, schedule: Q07DX002 (ip), vehicle: saline): 65 % of control
T/C (dose: 10.0 mg/kg/injection, schedule: Q07DX002 (ip), vehicle: water): 71 % of control
T/C (dose: 20.0 mg/kg/injection, schedule: Q07DX002 (ip), vehicle: saline): 31 % of control
T/C (dose: 20.0 mg/kg/injection, schedule: Q07DX002 (ip), vehicle: water): 36 % of control

CC1(C)CC23C4COC(=O)C2CCC1C3CC4=O (stereo not drawn)
T/C (dose: 6.25 mg/kg/injection, schedule: Q07DX002 (ip), vehicle: DMSO): 116 % of control and 101 % of control
T/C (dose: 25.0 mg/kg/injection, schedule: Q07DX002 (ip), vehicle: DMSO): 81 % of control and 92 % of control
T/C (dose: 50.0 mg/kg/injection, schedule: Q07DX002 (ip), vehicle: DMSO): 121 % of control and 105 % of control
T/C (dose: 200.0 mg/kg/injection, schedule: Q07DX002 (ip), vehicle: DMSO): 103 % of control

CN1CCc2c(c3ccccc3c3ccccc23)C1
T/C [3]: 111 % of control
T/C [4]: 93 % of control
T/C [5]: 86 % of control
T/C [6]: 72 % of control

CC(C)NC(=O)N(CCCCBr)N=O
T/C [7]: 90 % of control
T/C [5]: 86 % of control
T/C [6]: 70 % of control
T/C [8]: 56 % of control

Nc1nc2nc[nH]c2c(=O)[nH]1
T/C (dose: 100.0 mg/kg/injection, schedule: Q07DX002 (ip), vehicle: suspension in saline): 90 % of control
T/C (dose: 200.0 mg/kg/injection, schedule: Q07DX002 (ip), vehicle: suspension in saline): 83 % of control

COc1c(CNC(=O)CCl)cc2[nH]c(C)cc2c1CNC(=O)CCl
T/C [4]: 101 % of control
T/C [5]: 98 % of control
T/C [6]: 93 % of control
T/C [8]: 83 % of control
T/C [9]: 111 % of control

Oc1cc2c3c(c1)c1cc4c(cc1c[n+]3CC2)OCO4
T/C (dose: 3.12 mg/kg/injection, schedule: Q07DX002 (ip), vehicle: water): 102 % of control
T/C (dose: 6.25 mg/kg/injection, schedule: Q07DX002 (ip), vehicle: water): 77 % of control and 95 % of control
T/C (dose: 25.0 mg/kg/injection, schedule: Q07DX002 (ip), vehicle: water): 71 % of control
T/C (dose: 50.0 mg/kg/injection, schedule: Q07DX002 (ip), vehicle: water): 67 % of control and 71 % of control

OCC1OC(n2cnc3c(Cl)ncnc32)C(O)C1O (stereo not drawn)
T/C [2]: 82 % of control

O=Cc1ccc([N+](=O)[O-])s1
T/C (dose: 6.25 mg/kg/injection, schedule: Q07DX002 (ip), vehicle: saline with Tween-80): 124 % of control and 108 % of control
T/C (dose: 25.0 mg/kg/injection, schedule: Q07DX002 (ip), vehicle: saline with Tween-80): 108 % of control
T/C (dose: 50.0 mg/kg/injection, schedule: Q07DX002 (ip), vehicle: saline with Tween-80): 57 % of control

CNc1nc(NC)nc(NC)n1
T/C (dose: 12.5 mg/kg/injection, schedule: Q07DX003 (ip), vehicle: Klucel (hydroxypropylcellulose) (HPC)): 105 % of control
T/C (dose: 50.0 mg/kg/injection, schedule: Q07DX003 (ip), vehicle: Klucel (hydroxypropylcellulose) (HPC)): 111 % of control
T/C (dose: 100.0 mg/kg/injection, schedule: Q07DX003 (ip), vehicle: Klucel (hydroxypropylcellulose) (HPC)): 109 % of control
T/C (dose: 200.0 mg/kg/injection, schedule: Q07DX003 (ip), vehicle: Klucel (hydroxypropylcellulose) (HPC)): 86 % of control

CN(C)c1ccc2c(SCC(=O)OCC(=O)[C@@]3(O)CC[C@H]4[C@@H]5CCC6=CC(=O)C=C[C@]6(C)[C@H]5C(=O)C[C@@]43C)c3ccc(N(C)C)cc3nc2c1
T/C [5]: 82 % of control
T/C [6]: 69 % of control
T/C [8]: 56 % of control
T/C [9]: 77 % of control
T/C (dose: 800.0 mg/kg/injection, schedule: Q07DX002 (ip), vehicle: Klucel (hydroxypropylcellulose) (HPC)): 62 % of control

CN(C)c1ccc2c(NCCCCCCNc3ccnc4cc(N(C)C)ccc34)ccnc2c1
T/C (dose: 3.12 mg/kg/injection, schedule: Q07DX002 (ip), vehicle: distilled water + Tween-80 + alcohol): 81 % of control
T/C (dose: 6.25 mg/kg/injection, schedule: Q07DX002 (ip), vehicle: distilled water + Tween-80 + alcohol): 77 % of control
T/C (dose: 12.5 mg/kg/injection, schedule: Q07DX002 (ip), vehicle: distilled water + Tween-80 + alcohol): 62 % of control
T/C (dose: 25.0 mg/kg/injection, schedule: Q07DX002 (ip), vehicle: distilled water + Tween-80 + alcohol): 62 % of control
T/C (dose: 50.0 mg/kg/injection, schedule: Q07DX002 (ip), vehicle: distilled water + Tween-80 + alcohol): 47 % of control
T/C (dose: 100.0 mg/kg/injection, schedule: Q07DX002 (ip), vehicle: distilled water + Tween-80 + alcohol): 20 % of control

CS(C)=O
T/C (dose: 1.5 grams/kg/injection, schedule: Q07DX003 (ip), vehicle: saline): 86 % of control
T/C (dose: 6.0 grams/kg/injection, schedule: Q07DX003 (ip), vehicle: saline): 83 % of control and 103 % of control
T/C (dose: 12.0 grams/kg/injection, schedule: Q07DX003 (ip), vehicle: saline): 171 % of control

C[N+](C)(C)c1cc2c(nn1)Nc1ccccc1S2
T/C [3]: 109 % of control
T/C [4]: 122 % of control
T/C [7]: 89 % of control and 90 % of control
T/C [5]: 97 % of control
T/C [6]: 89 % of control

Cc1cc(O)c(O)c(Oc2cc(C)cc(O)c2O)c1
T/C (dose: 0.35 mg/kg/injection, schedule: Q07DX002 (ip), vehicle: saline): 96 % of control
T/C (dose: 0.7 mg/kg/injection, schedule: Q07DX002 (ip), vehicle: saline): 78 % of control
T/C (dose: 1.4 mg/kg/injection, schedule: Q07DX002 (ip), vehicle: saline): 77 % of control
